Measured values: ChEMBL document CHEMBL2440046, “Anabaseine analogues as modulators of nicotinic acetylcholine receptor” (ACS Med Chem Lett, 2013)

Key:
[1] = target: Neuronal acetylcholine receptor subunit alpha-7 (Rattus norvegicus, UniProt Q05941); assay: Displacement of [125I]-alpha-bungarotoxin from Sprague-Dawley rat brain alpha7 nAChR after 3 hrs by liquid scintillation counting analysis
[2] = target: Neuronal acetylcholine receptor; alpha4/beta2 (Rattus norvegicus, UniProt P09483+P12390); assay: Displacement of [3H]-cytisine from Sprague-Dawley rat brain alpha4beta2 nAChR after 4 hrs by liquid scintillation counting analysis
Neuronal acetylcholine receptor; alpha4/beta2, sequence (P09483 whole entry): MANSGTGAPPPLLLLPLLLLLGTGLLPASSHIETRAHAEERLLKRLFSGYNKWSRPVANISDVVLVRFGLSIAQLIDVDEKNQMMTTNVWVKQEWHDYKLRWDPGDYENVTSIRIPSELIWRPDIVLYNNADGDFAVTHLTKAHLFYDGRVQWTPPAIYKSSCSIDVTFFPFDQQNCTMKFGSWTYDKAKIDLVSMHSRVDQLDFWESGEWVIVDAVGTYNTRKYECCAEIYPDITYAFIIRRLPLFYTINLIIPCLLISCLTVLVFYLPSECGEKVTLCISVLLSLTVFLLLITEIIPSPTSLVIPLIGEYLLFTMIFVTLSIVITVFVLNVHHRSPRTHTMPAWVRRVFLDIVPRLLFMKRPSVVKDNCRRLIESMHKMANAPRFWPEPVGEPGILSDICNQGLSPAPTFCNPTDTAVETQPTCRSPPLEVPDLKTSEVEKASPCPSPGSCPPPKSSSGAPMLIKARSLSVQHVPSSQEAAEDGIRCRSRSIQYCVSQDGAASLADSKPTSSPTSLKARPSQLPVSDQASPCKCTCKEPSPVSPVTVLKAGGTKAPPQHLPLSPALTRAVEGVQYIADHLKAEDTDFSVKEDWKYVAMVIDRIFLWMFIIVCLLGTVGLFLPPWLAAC
Neuronal acetylcholine receptor; alpha4/beta2, sequence (P12390 whole entry): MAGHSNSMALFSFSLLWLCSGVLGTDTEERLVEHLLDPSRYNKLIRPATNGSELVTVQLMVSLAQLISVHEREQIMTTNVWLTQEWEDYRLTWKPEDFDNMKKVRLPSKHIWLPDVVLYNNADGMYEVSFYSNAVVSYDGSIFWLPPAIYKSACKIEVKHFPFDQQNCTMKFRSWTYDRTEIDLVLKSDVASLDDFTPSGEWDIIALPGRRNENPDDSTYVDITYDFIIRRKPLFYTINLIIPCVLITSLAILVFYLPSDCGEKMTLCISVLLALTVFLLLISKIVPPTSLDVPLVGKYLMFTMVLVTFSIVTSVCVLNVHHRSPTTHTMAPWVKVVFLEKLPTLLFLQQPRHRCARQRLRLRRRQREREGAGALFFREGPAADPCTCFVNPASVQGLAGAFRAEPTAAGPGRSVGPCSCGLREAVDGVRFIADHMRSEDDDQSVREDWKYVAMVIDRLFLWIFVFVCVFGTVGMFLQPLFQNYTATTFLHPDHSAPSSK

Neuronal acetylcholine receptor subunit alpha-7, sequence (Q05941 whole entry): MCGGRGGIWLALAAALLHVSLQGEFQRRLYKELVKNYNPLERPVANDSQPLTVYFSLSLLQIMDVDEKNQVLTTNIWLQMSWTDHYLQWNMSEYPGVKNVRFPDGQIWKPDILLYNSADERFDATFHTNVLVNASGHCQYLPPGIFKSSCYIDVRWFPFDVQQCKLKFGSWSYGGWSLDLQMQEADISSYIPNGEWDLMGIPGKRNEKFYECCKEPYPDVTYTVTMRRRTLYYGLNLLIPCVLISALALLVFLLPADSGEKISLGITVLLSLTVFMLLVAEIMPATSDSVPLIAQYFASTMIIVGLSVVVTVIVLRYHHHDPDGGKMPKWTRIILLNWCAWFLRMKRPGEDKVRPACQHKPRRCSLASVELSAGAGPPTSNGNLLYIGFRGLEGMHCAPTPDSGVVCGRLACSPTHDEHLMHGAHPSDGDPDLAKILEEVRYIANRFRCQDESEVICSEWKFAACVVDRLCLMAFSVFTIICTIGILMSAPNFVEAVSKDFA

SMILES	Ki [1]	Ki [2]
COc1ccc(CC2C(c3cccnc3)=N[C@@H]3CC[C@H]2C3)c(OC)c1 (stereo partly drawn)	4400 nM	347 nM
COc1ccc(CC2C(c3cccnc3)=N[C@H]3CC[C@@H]2C3)c(OC)c1 (stereo partly drawn)	16.4 nM	219 nM
Oc1ccc(CC2C(c3cccnc3)=N[C@H]3CC[C@@H]2C3)cc1 (stereo partly drawn)	34.1 nM	72.5 nM
Nc1ccc(CC2C(c3cccnc3)=N[C@H]3CC[C@@H]2C3)cc1 (stereo partly drawn)	3.43 nM	34.1 nM
